In patent publication US20230346765A1, “METHODS OF TREATING XANTHINE OXIDASE-RELATED DISEASES WITH NIFLUMIC ACID AND DERIVATIVES THEREOF” (Baylor College of Medicine, priority 2020, published 2023):
pIC50, pKi: −log10 of the molar value. Entries after “also recorded” stand apart in the source; their conditions may differ.

Tests used:
uricase −/− mice [1] = assay: Serum uric acid in chronic hyperuricemia model, drug in drinking water; assay type: in vivo
Method: Serum uric acid (SUA) levels in uricase −/− mice were used to probe the effects of treatment with drinking water containing allopurinol, DHNB, and niflumic acid (NFA). Under the maintenance of allopurinol, adult uricase−/− mice show relatively low SUA (2-4 mg/dL). […] For the current experiments, the allopurinol water was stopped and normal water was supplied to uricase−/− mice for one week; and then uricase−/− mice were treated with DHNB (150 mg/L) or NFA (150 mg/L) in drinking water. Additionally, uricase−/− mice were given allopurinol (150 mg/L) as a positive control, while normal water was given for a negative control. All drug/waters were refreshed every week. Serum uric acid (SUA) levels of treated and control mice were determined 1-2 weeks, 4-6 weeks or 8-10 weeks after the treatment (see FIG. 10). Mouse blood (100˜200 μL) was taken via facial vein at the scheduled time point. The blood was allowed to clot for 1 hour at room temperature and then centrifuged at 2350 g for 4 minutes to obtain serum. The serum was kept on ice and assayed immediately by the tungsten phosphate method, as known to those of skill in the art.

uricase −/− mice [2] = assay: Serum uric acid in chronic hyperuricemia model, drug in solid chow diet; assay type: in vivo; settings: for SUA: 250 mg/Kg food, 6-8 weeks; for SUA levels versus regular chow control: 250 mg/kg food, 6 to 8 weeks, p<0.001
Method: An analogous study was performed to investigate the effects on SUA in uricase −/− mice treated with solid chow diet formulated with NFA, DHNB, and allopurinol. NFA, DHNB or allopurinol was formulated into solid chow diet (250 mg/kg food, LabDiet® 5V5R, ½″ pellet; Irradiated) from the company (Test Diet, St. Louis, MO and Lab Supply, Inc). Allopurinol water was stopped for uricase−/− mice, while normal water was supplied during experiments. Uricase−/− mice (1-2 months age, male and female), were given special solid chow die including NFA, DHNB or allopurinol (250 mg/kg food). In separate mice, special solid chow diet containing allopurinol (250 mg/kg food) was given for a positive control and regular solid chow diet was given for a negative control. Blood samples were obtained and processed at 6 or 8 weeks after the treatment (see FIG. 11). Serum uric acid was determined using the tungsten phosphate method.

[3] = system: allantoxanamide-treated mice; assay: Hypouricemic effect in allantoxanamide induced hyperuricemic mice (Example 3); assay type: in vivo, C57BL/6 mice; settings: 50 mg/kg oral gavage once; 1.5, 3 and 23 hours; p<0.05
Method: A hyperuricemia mouse model was used. Allantoxanamide, a potent uricase inhibitor, was used to induce hyperuricemia in mice in this study. Briefly, adult C57BL/6 mice (15-25 g. 6-8 weeks old) were injected intraperitoneally (i.p.) with allantoxanamide at 100 mg/kg or 200 mg/kg in 0.5% sodium carboxymethyl cellulose (CMC-Na) in a volume of 0.1 ml/10 g mouse body weight, to increase the serum uric acid level. The mice then received the test compound morniflumate at a concentration of 50 mg/kg in 1.0% polyethylene glycol 400 (PEG400 in a volume of 0.1 ml/10 g mouse body weight), via oral gavage. Positive control mice received allopurinol at the same concentration as test compound after i.p. injection of allantoxanamide. The negative control mice received PEG400 only after i.p, injection of allantoxanamide. Blood samples were collected through the facial vein at 1,5 hours, 3 hours, and 23 hours after the oral gavage. The blood was allowed to clot for 1 hour at room temperature and then centrifuged at 2350×g for 4 minutes to obtain serum. The serum was kept on ice and assayed immediately. Serum uric acid was determined using the phosphotungstate method, as known to those of skill in the art.

[4] = system: allantoxanamide-treated mice; assay: Serum uric acid in acute hyperuricemia mouse model, allantoxanamide-treated (Example 4); assay type: in vivo, C57BL/6 mice; settings: 50 mg/kg oral gavage once
Method: Adult C57BL/6 mice (15-25 g, 6-8 weeks old) were injected intraperitoneally (i.p.) with allantoxanamide at 100 mg/kg in 0.5% sodium carboxymethyl cellulose (CMC-Na) in a volume of 0.1 ml/10 g mouse body weight, to increase the serum uric acid level. Then the mice received a test compound at a concentration of 50 mg/kg in 1.0% polyethylene glycol 400 (PEG-400 in a volume of 0.1 ml/10 g mouse body weight), via oral gavage. Positive control mice received allopurinol at the same concentration as the test compound after i.p. injection of allantoxanamide. The negative control mice received PEG400 only after i.p. injection of allantoxanamide. Blood samples were collected through facial vein at 3 hours and 23 hours after the oral gavage (one time treatment). The blood was allowed to clot for 1 hour at room temperature and then centrifuged at 2350×g for 4 minutes to obtain serum. The serum was kept on ice and assayed immediately. Serum uric acid was determined using the phosphotungstate method, as known to those of skill in the art.
Allopurinol was used as a positive control. Allantoxanamide is a potent uricase inhibitor. […] Animal numbers used in this experiments [Negative control (baseline)=11; allantoxanamide=10, allopurinol (positive control)=4; niflumic acid=6; NFA-impurity E=6; talniflumate=6 and ethylniflutnate=6].

[5] = target: T1, Xanthine oxidase from bovine milk (Bos taurus, UniProt P80457); assay: XO inhibition assay, cell-free, spectrophotometric monitoring of uric acid formation at 295 nm; assay type: biochemical; settings: for type of inhibition / pKi: Lineweaver-Burk plot; for pKi: read-out: inhibitor constant (Ki); for inhibition of XO compared among 25 compounds and with allopurinol: each compound at 20 μM; for Vmax of XO: in the presence of different concentrations of the inhibitor; for initial rate of uric acid formation with longer pre-incubation times with XO: pre-incubated with XO for varying times, then xanthine added
T1 construct: Xanthine oxidase from bovine milk; purchased Sigma Chemical Co. (St. Louis, MO); host or cells: bovine milk
T1 sequence (P80457 whole entry): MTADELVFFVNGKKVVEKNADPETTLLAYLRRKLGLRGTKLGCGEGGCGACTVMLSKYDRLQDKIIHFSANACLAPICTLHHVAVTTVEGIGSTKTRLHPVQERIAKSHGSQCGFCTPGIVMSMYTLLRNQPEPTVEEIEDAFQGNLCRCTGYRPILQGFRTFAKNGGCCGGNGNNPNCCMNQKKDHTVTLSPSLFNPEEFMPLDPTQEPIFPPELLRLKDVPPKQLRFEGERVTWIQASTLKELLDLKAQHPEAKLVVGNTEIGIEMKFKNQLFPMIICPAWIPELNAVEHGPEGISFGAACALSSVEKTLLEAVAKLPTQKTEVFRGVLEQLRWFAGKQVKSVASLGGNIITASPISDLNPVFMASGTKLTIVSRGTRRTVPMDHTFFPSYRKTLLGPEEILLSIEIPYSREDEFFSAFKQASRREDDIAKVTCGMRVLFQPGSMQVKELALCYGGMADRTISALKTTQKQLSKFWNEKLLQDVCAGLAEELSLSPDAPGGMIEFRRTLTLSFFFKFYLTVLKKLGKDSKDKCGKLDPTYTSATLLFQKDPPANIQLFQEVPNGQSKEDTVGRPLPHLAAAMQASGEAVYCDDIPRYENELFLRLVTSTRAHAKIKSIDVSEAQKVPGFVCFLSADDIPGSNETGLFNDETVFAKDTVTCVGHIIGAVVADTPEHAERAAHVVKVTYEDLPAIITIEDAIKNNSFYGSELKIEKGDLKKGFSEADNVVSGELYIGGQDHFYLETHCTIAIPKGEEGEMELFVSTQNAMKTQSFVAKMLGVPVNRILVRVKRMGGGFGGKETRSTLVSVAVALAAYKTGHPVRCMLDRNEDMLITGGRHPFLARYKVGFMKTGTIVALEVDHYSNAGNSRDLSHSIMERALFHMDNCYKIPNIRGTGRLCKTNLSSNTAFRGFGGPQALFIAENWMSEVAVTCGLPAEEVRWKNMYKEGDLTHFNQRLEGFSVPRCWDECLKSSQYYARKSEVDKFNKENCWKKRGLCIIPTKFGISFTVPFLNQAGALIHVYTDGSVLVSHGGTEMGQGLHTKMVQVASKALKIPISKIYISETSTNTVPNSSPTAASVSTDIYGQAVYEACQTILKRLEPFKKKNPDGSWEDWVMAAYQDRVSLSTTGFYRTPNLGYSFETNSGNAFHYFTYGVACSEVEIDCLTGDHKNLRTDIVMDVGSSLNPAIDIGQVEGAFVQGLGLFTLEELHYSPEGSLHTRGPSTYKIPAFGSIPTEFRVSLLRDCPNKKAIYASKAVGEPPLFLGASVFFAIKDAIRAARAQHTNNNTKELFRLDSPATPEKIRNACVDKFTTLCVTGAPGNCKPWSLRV
Excerpt: Xanthine oxidase from bovine milk, xanthine, allopurinol, niflumic acid (NFA), ethyl niflumate, 2-(3-chloro-5-(trifluoromethyl)-2-pyridylthio)pyridine-3-carboxylic acid, 2-[3-(trifluoromethyl)phenoxy]nicotinic acid, clonixin, flunixin, flufenamic acid, indomethacin, naproxen, diclofenac, aspirin, ibuprofen, talniflumate, 6-phenylamino-nicotinic acid, 2-phenylamino-nicotinic acid, N-phenylanthranilic acid, mefenamic acid, tolfenamic acid, meclofenamic acid, floctafenic acid, and dimethyl sulfoxide (DMSO) were obtained from Sigma Chemical Co. (St. Louis, MO). Morniflumate was purchased from Toronto Research Chemicals, Inc. (North York, Canada).
The uric acid absorbance at 295 nm was followed and the intensity data were collected every 30 seconds for 10 minutes. The initial rate of uric acid formation was generated for the reaction and converted to XO activity as 100% without any inhibitor (negative control). The inhibitory effect of NFA on XO activity was calculated as compared with the negative control (DMSO).
The formation of uric acid during the oxidation of xanthine by XO in the absence of NFA was recorded (see FIG. 2A). Uric acid formation was monitored as the absorbance at 295 nm over a period of 0-10 minutes during the oxidation of xanthine. The corresponding data were recorded for the oxidation of xanthine by XO in the presence of 10 μM NFA over a period of 0-10 minutes (see FIG. 2B).
Enzyme kinetics analysis of NFA—The inhibition kinetics of NFA on XO was determined by using the Lineweaver-Burk plot (see FIG. 3A). […] The maximum velocity (Vmax) and Michaelis-Menten constant of XO were determined in the presence of different concentrations of NFA (see FIG. 3B).
Dose-dependent effects—The dose-dependent effects on XO inhibition by NFA, NFA impurity E (labeled as “Impurity E”), flunixin, clonixin, and flufenamic acid were studied (see FIG. 5). Varying concentrations (0-40 μM) of each compound were pre-incubated with 20 nM of XO. Allopurinol was used as a positive control and DMSO was used as a negative control.
The inhibition kinetics of NFA impurity E on XO was determined by using the Lineweaver-Burk plot (see FIG. 7A). […] The maximum velocity (Vmax) and Michaelis-Menten constant of XO was determined in the presence of different concentrations of NFA […] (see FIG. 7B).
XO (20 nM) was pre-incubated with NFA, allopurinol or a combination of NFA and allopurinol for 1 minute in a phosphate buffer ([…] pH 7.2), followed by the addition of […] xanthine to start the reaction. XO activity was analyzed by measuring the production of uric acid.

[6] = Stability of NFA during pre-incubation with XO (absorbance at 287 nm); assay type: physicochemical; settings: incubated with XO for 0 to 47 hours
[7] = 150 mg/L in drinking water, 1-2 weeks
[8] = 150 mg/L in drinking water, 4-6 weeks
[9] = 150 mg/L in drinking water, 8-10 weeks

Row | Structure (SMILES) | SUA (uricase −/− mice [1]; [7]) | SUA (uricase −/− mice [1]; [8]) | SUA (uricase −/− mice [1]; [9]) | SUA (uricase −/− mice [2]) | SUA levels versus regular chow control (uricase −/− mice [2]) | SUA levels versus allantoxanamide control ([4]; 3-hour time point) | SUA levels versus allantoxanamide control ([4]; 23-hour time point) | further results
1 | Oc1ncnc2[nH]ncc12 [Allopurinol, allopurinol] | 3.34 ± 0.87 mg/dL | 3.45 ± 0.49 mg/dL | 4.28 ± 0.80 mg/dL | 4.33 ± 1.15 mg/dL | significantly reduced SUA levels | significantly reduced SUA levels | significantly reduced SUA levels | SUA under maintenance of allopurinol (uricase −/− mice [1]; adult uricase−/− mice, maintenance allopurinol water): 2 to 4 mg/dL; SUA levels versus allantoxanamide control [3]: significantly reduced SUA levels
2 | O=Cc1cc(O)c(O)c([N+](=O)[O-])c1 [DHNB, 3,4-dihydroxy-5-nitrobenzaldehyde] | 5.37 ± 1.06 mg/dL | 5.73 ± 0.76 mg/dL | 5.76 ± 0.81 mg/dL | 5.91 ± 1.30 mg/dL | significantly reduced SUA levels |  |  | 
3 | O=C(O)c1ccc(Nc2cccc(C(F)(F)F)c2)nc1 [NFA impurity E] |  |  |  |  |  | significantly reduced SUA levels | significant effect | dose-dependent XO inhibition, rank ([5]; 0-40 μM pre-incubated with 20 nM XO): most potent amongst each of the compounds tested; type of inhibition [5]: mixed-type inhibition; pKi [5]: 7.52; inhibition of XO compared among 25 compounds and with allopurinol [5]: most potent inhibitor amongst the compounds tested; also recorded: most effectively inhibit XO activity; Vmax of XO [5]: 0.044 µM/s; initial rate of uric acid formation with longer pre-incubation times with XO [5]: did not change
4 | O=C(O)c1cccnc1Nc1cccc(C(F)(F)F)c1 [Niflumic acid, niflumic acid] | 5.47 ± 1.21 mg/dL | 6.50 ± 0.64 mg/dL | 3.89 ± 0.20 mg/dL | 5.17 ± 1.28 mg/dL | significantly reduced SUA levels | significantly reduced SUA levels | significant effect | pIC50 ([5]; 20 nM XO, read-out: IC50, inhibitory effect on XO activity): 5.56; type of inhibition [5]: mixed-type inhibition; pKi [5]: 6.43; relative enzymatic activity ([5]; at 20 μM): approximately 20%; XO relative activity ([5]; at lower concentrations (≤3.3 μM)): 45%; inhibition of XO compared among 25 compounds and with allopurinol ([5]; listed as NFA): inhibitory effect similar to that of allopurinol; also recorded: most effectively inhibit XO activity; Vmax of XO [5]: 0.04 µM/s; initial rate of uric acid formation with longer pre-incubation times with XO [5]: did not change; effect of pre-incubation with XO on stability [6]: no effect on the stability; SUA levels versus control mice (uricase −/− mice [1]; 150 mg/L in drinking water, all three time points, p<0.001): significantly reduced SUA levels
5 | CCOC(=O)c1cccnc1Nc1cccc(C(F)(F)F)c1 [ethylniflumate, ethyl niflumate] |  |  |  |  |  | significantly reduced SUA levels |  | 
6 | Cc1c(Nc2ncccc2C(=O)O)cccc1C(F)(F)F [flunixin] |  |  |  |  |  |  |  | inhibition of XO compared among 25 compounds and with allopurinol [5]: decreased its XO inhibitory activity
7 | O=C(OCCN1CCOCC1)c1cccnc1Nc1cccc(C(F)(F)F)c1 [morniflumate, Morniflumate] |  |  |  |  |  |  |  | SUA levels versus allantoxanamide control [3]: significantly reduced SUA levels
8 | O=C1OC(OC(=O)c2cccnc2Nc2cccc(C(F)(F)F)c2)c2ccccc21 (centres unmarked) [talniflumate] |  |  |  |  |  | significantly reduced SUA levels | significant effect | 
